The structures appear in SMILES notation.

IC50 data for 21 molecules are collected here from patent US8329904B2, “Azacyclic derivatives” (Hoffmann-La Roche Inc., priority 2009, dated 2012).

This assay concerns the target T1, human HSL (Homo sapiens, UniProt Q05469).
T1 construct: overlapping PCR to generate a full length human HSL ORF with a 3′-His6 tag; His6 (C); made in house; host or cells: High 5 insect cells (baculovirus, pFast-BAC)
T1 sequence (Q05469 1-1076): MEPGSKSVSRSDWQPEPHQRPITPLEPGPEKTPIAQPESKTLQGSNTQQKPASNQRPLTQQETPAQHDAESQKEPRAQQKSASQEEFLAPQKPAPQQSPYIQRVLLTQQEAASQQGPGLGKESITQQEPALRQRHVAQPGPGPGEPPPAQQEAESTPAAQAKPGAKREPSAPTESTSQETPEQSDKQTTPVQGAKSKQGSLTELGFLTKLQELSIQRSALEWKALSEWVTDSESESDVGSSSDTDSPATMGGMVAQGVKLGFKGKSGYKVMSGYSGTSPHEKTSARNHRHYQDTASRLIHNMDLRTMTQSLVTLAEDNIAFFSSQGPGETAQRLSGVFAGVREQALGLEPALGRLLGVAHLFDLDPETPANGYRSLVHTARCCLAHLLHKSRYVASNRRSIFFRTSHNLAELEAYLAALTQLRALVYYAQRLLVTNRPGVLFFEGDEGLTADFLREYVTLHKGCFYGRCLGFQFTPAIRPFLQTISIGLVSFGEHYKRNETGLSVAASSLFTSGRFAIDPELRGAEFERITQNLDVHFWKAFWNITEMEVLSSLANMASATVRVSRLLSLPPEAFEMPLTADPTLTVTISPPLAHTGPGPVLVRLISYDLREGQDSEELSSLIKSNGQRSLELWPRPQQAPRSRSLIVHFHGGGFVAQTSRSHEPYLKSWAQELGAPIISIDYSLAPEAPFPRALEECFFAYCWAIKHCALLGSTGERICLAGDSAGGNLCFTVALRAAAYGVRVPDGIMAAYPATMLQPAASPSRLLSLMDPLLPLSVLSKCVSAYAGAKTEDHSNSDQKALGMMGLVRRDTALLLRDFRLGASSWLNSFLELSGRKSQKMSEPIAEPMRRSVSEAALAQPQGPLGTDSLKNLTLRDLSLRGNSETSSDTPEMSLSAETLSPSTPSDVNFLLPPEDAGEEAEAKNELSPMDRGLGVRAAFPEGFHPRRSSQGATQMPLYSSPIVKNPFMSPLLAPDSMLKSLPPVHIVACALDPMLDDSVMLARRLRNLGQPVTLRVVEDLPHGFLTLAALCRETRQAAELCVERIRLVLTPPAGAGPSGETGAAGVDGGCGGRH
The assay is described as follows: Human Hormone-Sensitive Lipase (HSL) Enzyme Inhibition Assay. In kind it is biochemical. The settings on record: colorimetric assay, 2,3-dimercapto-1-propanol tributyrate (DMPT) substrate, 37° C. for 20 minutes, absorbance at 405 nm; read-out: HSL hum IC50. The method, boiled down:
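Colorimetric thioester hydrolysis: compounds in DMSO series mixed with DMPT (1.5 mM) in MOPS pH 7.2 with BSA, then baculovirus-expressed His6-tagged full-length human HSL added, 37° C, 20 min. DTNB plus detergents added, 15 min room temperature, absorbance at 405 nm.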
Take `CC(Oc1ccc(N2CCC3(CCN(S(=O)(=O)c4ccccc4OC(F)(F)F)CC3)C2=O)cn1)C(F)(F)F` (stereo not drawn) [Example 89, 8-(2-Trifluoromethoxy-benzenesulfonyl)-2-[6-(2,2,2-trifluoro-1-methyl-ethoxy)-pyridin-3-yl]-2,8-diaza-spiro[4.5]decan-1-one]: the IC50 (commonly the concentration needed to halve the response being measured) was determined as 30 nM.
On to `O=C1N(c2ccc(OC(F)(F)F)cc2)CCC12CCN(S(=O)(=O)c1cccs1)CC2` [Example 28, 8-(Thiophene-2-sulfonyl)-2-(4-trifluoromethoxy-phenyl)-2,8-diaza-spiro[4.5]decan-1-one], for which the IC50 stood at 40 nM.
`O=C1N(c2ccc(CC(F)(F)F)cc2)CCC12CCN(S(=O)(=O)c1ccc(F)cc1C(F)(F)F)CC2` [Example 81, 8-(4-Fluoro-2-trifluoromethyl-benzenesulfonyl)-2-[4-(2,2,2-trifluoro-ethyl)-phenyl]-2,8-diaza-spiro[4.5]decan-1-one]: the IC50 was determined as 90 nM.
Regarding `CCN(C(=O)N1CCC2(CC1)CCN(c1ccc(OC(F)(F)F)cc1)C2=O)c1cccc(C)c1` [Example 308, 1-Oxo-2-(4-trifluoromethoxy-phenyl)-2,8-diaza-spiro[4.5]decane-8-carboxylic acid ethyl-m-tolyl-amide], the IC50 was 50 nM.
As for `CC(Oc1ccc(N2CCC3(CCN(S(=O)(=O)c4ccccc4OC(F)(F)F)CC3)C2=O)cc1)C(F)(F)F` (stereo not drawn) [Example 99, 8-(2-Trifluoromethoxy-benzenesulfonyl)-2-[4-(2,2,2-trifluoro-1-methyl-ethoxy)-phenyl]-2,8-diaza-spiro[4.5]decan-1-one], the 50% inhibitory concentration (IC50) is 30 nM.
The result for `CC(C)(C)CS(=O)(=O)N1CCC2(CCN(c3ccc(OC(F)(F)F)cc3)C2=O)CC1` [Example 19, 8-(2,2-Dimethyl-propane-1-sulfonyl)-2-(4-trifluoromethoxy-phenyl)-2,8-diaza-spiro[4.5]decan-1-one] reads 40 nM; that for `CCc1ccc(N2CCC3(CCN(C(=O)CC(C)(C)C)CC3)C2=O)cc1` [Example 20, 8-(3,3-Dimethyl-butyryl)-2-(4-ethyl-phenyl)-2,8-diaza-spiro[4.5]decan-1-one], 240 nM; that for `Cc1noc(C)c1S(=O)(=O)N1CCC2(CCN(c3ccc(OC(C)C)cc3)C2=O)CC1` [Example 111, 8-(3,5-Dimethyl-isoxazole-4-sulfonyl)-2-(4-isopropoxy-phenyl)-2,8-diaza-spiro[4.5]decan-1-one], 110 nM.
Regarding `O=C1N(c2ccc(C(O)C(F)(F)F)cc2)CCC12CCN(S(=O)(=O)c1ccccc1C(F)(F)F)CC2` (stereo not drawn) [Example 166, 2-(4-(2,2,2-trifluoro-1-hydroxyethyl)phenyl)-8-(2-(trifluoromethyl)phenylsulfonyl)-2,8-diazaspiro[4.5]decan-1-one], the IC50 is 20 nM.
The result for `CCN(CC)C(=O)N1CCC2(CC1)CCN(c1ccc(OC(F)(F)F)cc1)C2=O` [Example 266, 1-Oxo-2-(4-trifluoromethoxy-phenyl)-2,8-diaza-spiro[4.5]decane-8-carboxylic acid diethylamide] reads 330 nM.
The result for `CC(C)(C)CC(=O)N1CCC2(CC1)CCN(c1ccc(C(O)C(F)(F)F)cc1)C2=O` (stereo not drawn) [Example 165, 8-(3,3-Dimethyl-butyryl)-2-[4-(2,2,2-trifluoro-1-hydroxy-ethyl)-phenyl]-2,8-diaza-spiro[4.5]decan-1-one] reads 220 nM; that for `Cn1cnc(S(=O)(=O)N2CCC3(CCN(c4ccc(OC(F)(F)F)cc4)C3=O)CC2)c1` [Example 181, 8-(1-Methyl-1H-imidazole-4-sulfonyl)-2-(4-trifluoromethoxy-phenyl)-2,8-diaza-spiro[4.5]decan-1-one], 260 nM.
As to `CC(C)CN(C)C(=O)N1CCC2(CC1)CCN(c1ccc(OC(F)(F)F)cc1)C2=O` [Example 270, 1-Oxo-2-(4-trifluoromethoxy-phenyl)-2,8-diaza-spiro[4.5]decane-8-carboxylic acid isobutyl-methyl-amide], the IC50 was 70 nM.
Regarding `COC(CS(=O)(=O)N1CCC2(CCN(c3ccc(OC(F)(F)F)cc3)C2=O)CC1)C1CC1` (stereo not drawn) [Example 209, 8-(2-Cyclopropyl-2-methoxy-ethanesulfonyl)-2-(4-trifluoromethoxy-phenyl)-2,8-diaza-spiro[4.5]decan-1-one], the IC50 worked out at 50 nM.
The result for `O=C1N(CCc2ccc(F)cc2)CCC12CCN(S(=O)(=O)c1ccccc1Cl)CC2` [Example 239, 8-(2-Chloro-benzenesulfonyl)-2-[2-(4-fluoro-phenyl)-ethyl]-2,8-diaza-spiro[4.5]decan-1-one] reads 60 nM; that for `CC(C)Oc1ccc(N2CCC3(CCN(S(=O)(=O)c4ccccc4OC(F)(F)F)CC3)C2=O)cc1` [Example 87, 2-(4-Isopropoxy-phenyl)-8-(2-trifluoromethoxy-benzenesulfonyl)-2,8-diaza-spiro[4.5]decan-1-one], 20 nM; that for `CCCS(=O)(=O)N1CCC2(CCN(c3ccc(C4CC4)cc3)C2=O)CC1` [Example 39, 2-(4-Cyclopropyl-phenyl)-8-(propane-1-sulfonyl)-2,8-diaza-spiro[4.5]decan-1-one], 200 nM.
Regarding `O=C(NCc1ccc(F)cc1)N1CCC2(CC1)CCN(c1ccc(OC(F)(F)F)cc1)C2=O` [Example 261, 1-Oxo-2-(4-trifluoromethoxy-phenyl)-2,8-diaza-spiro[4.5]decane-8-carboxylic acid 4-fluoro-benzylamide], the IC50 worked out at 190 nM.
For the molecule `CC(C)CS(=O)(=O)N1CCC2(CCN(c3ccc(OC(C)C(F)(F)F)cc3)C2=O)CC1` (stereo not drawn) [Example 86, 8-(2-Methyl-propane-1-sulfonyl)-2-[4-(2,2,2-trifluoro-1-methyl-ethoxy)-phenyl]-2,8-diaza-spiro[4.5]decan-1-one], the IC50 was 80 nM.
With `O=C1N(c2ccc(OCC(F)(F)F)cc2)CCC12CCN(S(=O)(=O)c1ccccc1Cl)CC2` [Example 115, 8-(2-Chloro-benzenesulfonyl)-2-[4-(2,2,2-trifluoro-ethoxy)-phenyl]-2,8-diaza-spiro[4.5]decan-1-one] the figure was 30 nM; with `CC(Oc1ccc(N2CCC3(CCN(S(=O)(=O)c4ccccc4)CC3)C2=O)cn1)C(F)(F)F` (racemic) [Example 25, (rac)-8-Benzenesulfonyl-2-[6-(2,2,2-trifluoro-1-methyl-ethoxy)-pyridin-3-yl]-2,8-diaza-spiro[4.5]decan-1-one], 50 nM.
